In patent publication US10766888B1, “HMOX1 inducers” (Mitobridge Inc., priority 2019, dated 2020):
“Also recorded” adds a separate entry of the source.

Legend:
hERG channel = hERG channel (Homo sapiens, UniProt Q12809); test: hERG manual patch clamp assay; type: cell-based; details: HEK 293 cells stably expressing hERG channel, pH 7.35, 10 μM compound
In short: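 Whole-cell manual patch clamp on doxycycline-induced HEK293 cells stably expressing hERG. Tail current measured at −50 mV after a 4.8 s step to +30 mV from −90 mV holding; test compounds at 10 μM, 0.1% DMSO, vs vehicle baseline. Percent inhibition from peak tail current, […].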

HbSS Townes sickle mice = test: F-cells (HbF-containing red blood cells) in HbSS Townes sickle mice; type: in vivo
Description: Blood smears were made using heparinized whole blood for F-cells staining. Stained F-cells and total red blood cells were counted on the blood smears in four fields; mean=77 red blood cells/field. F-cells are expressed as a percentage of total red blood cells. Values are means+SD. One-Way ANOVA with Dunnett's Multiple comparison to Vehicle **p≤0.01, ***p≤0.001, ****p≤0.0001
Dosing Scheme of HMOX Inducers to HbSS Townes Sickle Mice
HbSS Townes sickle mice were oral gavaged once daily with Vehicle or the compound of Example 17 listed below for 8 days. To minimize experimental inconsistency, fresh formulation was prepared every day and vortexed prior to drawing test article into syringe for each dosing, and dosing was performed by the same individual throughout the day. The last-day dose was administered by oral gavage 4 hours prior to hemin infusion described below. • 1. […]
F-cells were stained on whole blood smears by the Kleihauer-Betke method using a fetal cell stain kit (Simmler) according to the manufacturer's instructions. F-cells and total erythrocytes were counted in 4 separate microscopic fields at 100× magnification for each mouse. The F-cells were expressed as a percentage of total erythrocytes (i.e., red blood cells). […]

HMOX1 = HMOX1 mRNA expression in HepG2 cells (Nanostring); type: cell-based, human; details: 24 hours treatment, mRNA fold change vs DMSO
Protocol: Example 147. HMOX1 Inducers of the Invention Strongly Increase In Vitro Expression of HMOX1
RNA Isolation and Quantification of Gene Expression
HepG2 cells were seeded at 250 k/well in 12-well tissue culture plates coated with collagen (collagen I, rat tail (thin plate coating); ENZO Life Sciences) for approximately 24 hours. The seeded cells were then treated with dose titration of the compound of Example 17 or dimethyl fumarate (DMF) (a Nrf2 activator; Fisher Scientific) via media change, with biological triplicates performed for each treatment. After approximately 24 hours of treatment, cells were visually inspected to confirm that no toxicity occurred with compound treatment. The treated cells were washed with PBS, aspirated, parafilmed and frozen at −80° C. prior to RNA isolation. RNA was isolated using Machery-Nagel isolation kit (NucleoSpin® RNA: catalog 740955.250) and then quantitated using ThermoFisher Nanodrop.
RNA was diluted for Nanostring gene expression analysis. […]
The relative mRNA levels of the HMOX1 gene in HepG2 cells treated with the compound of Example 17 or DMF were measured according to the methods described above. […]

Chain of hERG channel (Q12809 whole entry): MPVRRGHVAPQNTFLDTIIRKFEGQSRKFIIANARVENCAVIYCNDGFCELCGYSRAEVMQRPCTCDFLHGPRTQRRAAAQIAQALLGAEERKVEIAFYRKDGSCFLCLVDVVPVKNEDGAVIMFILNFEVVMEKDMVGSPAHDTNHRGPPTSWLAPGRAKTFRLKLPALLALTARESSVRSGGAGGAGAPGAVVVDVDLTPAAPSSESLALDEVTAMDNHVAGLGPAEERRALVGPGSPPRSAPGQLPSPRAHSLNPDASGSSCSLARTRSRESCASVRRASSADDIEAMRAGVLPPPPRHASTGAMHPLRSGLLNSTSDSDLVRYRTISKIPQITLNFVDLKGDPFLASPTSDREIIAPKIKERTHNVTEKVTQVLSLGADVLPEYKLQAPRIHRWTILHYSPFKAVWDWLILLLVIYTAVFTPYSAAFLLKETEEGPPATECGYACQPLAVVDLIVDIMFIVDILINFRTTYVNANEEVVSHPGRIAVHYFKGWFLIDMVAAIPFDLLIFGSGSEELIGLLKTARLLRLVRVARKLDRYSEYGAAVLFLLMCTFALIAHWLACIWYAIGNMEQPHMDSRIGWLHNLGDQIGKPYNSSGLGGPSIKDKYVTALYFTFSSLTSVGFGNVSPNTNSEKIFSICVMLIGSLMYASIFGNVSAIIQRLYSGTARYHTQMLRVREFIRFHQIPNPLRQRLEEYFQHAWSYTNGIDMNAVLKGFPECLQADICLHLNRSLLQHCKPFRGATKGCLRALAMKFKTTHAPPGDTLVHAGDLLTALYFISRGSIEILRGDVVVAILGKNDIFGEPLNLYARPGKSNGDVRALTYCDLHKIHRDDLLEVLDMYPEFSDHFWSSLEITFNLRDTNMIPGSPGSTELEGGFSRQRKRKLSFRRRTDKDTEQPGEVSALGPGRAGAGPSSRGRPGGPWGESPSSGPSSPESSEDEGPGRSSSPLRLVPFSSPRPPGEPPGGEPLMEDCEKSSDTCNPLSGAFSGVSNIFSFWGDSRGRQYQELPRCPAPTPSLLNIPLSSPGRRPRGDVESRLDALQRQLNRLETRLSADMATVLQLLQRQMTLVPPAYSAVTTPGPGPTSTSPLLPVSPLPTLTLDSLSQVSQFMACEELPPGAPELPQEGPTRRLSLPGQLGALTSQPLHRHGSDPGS

| Compound | inhibition at 10 µM (hERG channel) | percent F-cells compared with vehicle (in words) (HbSS Townes sickle mice; 10, 25, 50 mg/kg PO once daily for 8 days) | percent F-cells (of total red blood cells) (HbSS Townes sickle mice; all doses tested (10, 25, 50 mg/kg PO, 8 days)) | HMOX1 expression compared with DMF (in words) (HMOX1) |
| --- | --- | --- | --- | --- |
| COCCNC(=O)c1ccc2c(c1)nc(Nc1nc3ccc(OCCOC)cc3o1)n2C [Example 56, 2-((6-(2-methoxyethoxy)benzo[d]oxazol-2-yl)amino)-N-(2-methoxyethyl)-1-methyl-1H-benzo[d]imidazole-5-carboxamide] | 35% |  |  |  |
| Cn1c(Nc2nc3ccccc3o2)nc2cc(C(=O)NCCOCCO)ccc21 [Example 17, 2-(benzo[d]oxazol-2-ylamino)-N-(2-(2-hydroxyethoxy)ethyl)-1-methyl-1H-benzo[d]imidazole-5-carboxamide] | 16% | significantly increased; also recorded: more than doubled; also recorded: did not appear to be dose responsive; also recorded: increase | 55-70% | much more strongly than DMF |
